In ChEMBL document CHEMBL1201862, “PubChem BioAssay data set” (2004):
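The compound was tested at five concentrations on cells cultured in 96-well plates, with a 48-hour exposure period. Abbreviation: GI50, concentration required for 50% inhibition of growth.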 Calls of active or inactive are those of the source. Rule as the data show it: active = GI50 up to about 1.1 µM and inactive = higher.

How the values were obtained:
Experiment in all cases: growth of human tumour cells (NCI), 48 h
[1] = tested on: HOP-18
[2] = tested on: KM-20L2
[3] = tested on: DLD-1
[4] = tested on: M19-MEL
[5] = tested on: XF498
[6] = tested on: LXFL 529
[7] = tested on: DMS-114
[8] = tested on: RXF 631
[9] = tested on: SNB-78

Row | Structure (SMILES) | GI50 [1] | GI50 [2] | GI50 [3] | GI50 [4] | GI50 [5] | GI50 [6] | GI50 [7] | GI50 [8] | GI50 [9]
1 | Cc1ccc(-n2c(=S)[nH]c3ccc(Br)cc3c2=O)cc1 | > 100 µM (inactive) | > 100 µM (inactive) | 67.9 µM (inactive) | > 100 µM (inactive) | > 100 µM (inactive) | > 100 µM (inactive) | > 100 µM (inactive) |  | 
2 | C=CC[P@]1(=O)O[C@H](c2ccccc2)C(C)N1C(C)C (stereo partly drawn) | > 100 µM (inactive) | > 100 µM (inactive) | > 100 µM (inactive) | > 100 µM (inactive) | > 100 µM (inactive) | > 100 µM (inactive) | > 100 µM (inactive) | > 100 µM (inactive) | 
3 | O=C1C2c3[nH]c4ccccc4c3C3CCC(c4ccccc4)CC3C2C(=O)N1c1ccccc1 (stereo not drawn) | > 100 µM (inactive) |  | > 100 µM (inactive) | > 100 µM (inactive) | > 100 µM (inactive) | > 100 µM (inactive) | > 100 µM (inactive) |  | 28.6 µM (inactive)
4 | C=C1CC(C/C=C(\C)CC2CC(=C)C(=O)O2)OC1=O (stereo not drawn) | > 100 µM (inactive) | > 100 µM (inactive) | > 100 µM (inactive) | > 100 µM (inactive) | > 100 µM (inactive) | > 100 µM (inactive) | > 100 µM (inactive) | > 100 µM (inactive) | > 100 µM (inactive)
5 | CC(C)=NNC(=S)NC12CC3CC(CC(C3)C1)C2 |  | > 100 µM (inactive) |  | > 100 µM (inactive) | > 100 µM (inactive) | > 100 µM (inactive) |  | > 100 µM (inactive) | > 100 µM (inactive)
6 | COC1=C(C)C(=O)C2=C(C1=O)C1C3CC4=C(C(=O)C(OC)=C(C)C4=O)C(CNC(=O)C(C)O)N3C(C#N)C(C2)N1C (stereo not drawn) | < 0.01 µM (active) | < 0.01 µM (active) | < 0.01 µM (active) | < 0.01 µM (active) | < 0.01 µM (active) |  | < 0.01 µM (active) |  | < 0.01 µM (active)
7 | NS(=O)(=O)c1ccc(NC(=O)CC(=O)Nc2ccc(S(N)(=O)=O)cc2)cc1 | > 100 µM (inactive) | > 100 µM (inactive) | > 100 µM (inactive) | > 100 µM (inactive) |  | > 100 µM (inactive) | > 100 µM (inactive) |  | > 100 µM (inactive)
8 | Cc1nc(-n2nc(-c3ccccc3)cc2-c2ccccc2)sc1C(/C=C\c1ccc([N+](=O)[O-])cc1)=N/NC(=S)NN |  | 50.6 µM (inactive) | 19.2 µM (inactive) | > 100 µM (inactive) |  | 47.3 µM (inactive) | 37.4 µM (inactive) |  | 70 µM (inactive)
9 | O=C(CCc1nnc(S)[nH]1)Nc1ccc(Cl)c(Cl)c1 | > 100 µM (inactive) | 6.12 µM (inactive) | > 100 µM (inactive) | 43.6 µM (inactive) | > 100 µM (inactive) | 13.2 µM (inactive) | 23.5 µM (inactive) | 72.3 µM (inactive) | > 100 µM (inactive)
10 | CCOC(OC1=C(C#N)CCC1)C(C)[Se]c1ccccc1 (stereo not drawn) | 25.4 µM (inactive) | 45.4 µM (inactive) | 30.5 µM (inactive) | 14.8 µM (inactive) |  | 17.2 µM (inactive) | 4.06 µM (inactive) | 11.1 µM (inactive) | 29.8 µM (inactive)
11 | CC(C)(C)C[P+](C)(C)c1ccccc1 | > 100 µM (inactive) | 83 µM (inactive) | > 100 µM (inactive) | > 100 µM (inactive) |  | > 100 µM (inactive) | > 100 µM (inactive) | > 100 µM (inactive) | > 100 µM (inactive)
12 | COc1cc(CNc2nc3c(N)cc(C(F)(F)F)cc3nc2-c2ccccc2)cc(OC)c1OC | > 10 µM (inactive) | 29.6 µM (inactive) | 31.8 µM (inactive) | 35.4 µM (inactive) | 13.7 µM (inactive) | 25.6 µM (inactive) | 12.3 µM (inactive) | 44.3 µM (inactive) | > 10 µM (inactive)
13 | Cn1c2c(c3ccccc31)CCN(CCN1CCN(c3ccccc3)CC1)C2=O | 55 µM (inactive) | > 100 µM (inactive) | > 100 µM (inactive) |  | 22.2 µM (inactive) | > 100 µM (inactive) | > 100 µM (inactive) | > 100 µM (inactive) | 
14 | CCN(CC)CC(=O)Nc1ccc2c(c1)C(=O)c1ccc(NC(=O)CN(CC)CC)cc1C2=O |  | 49.8 µM (inactive) | 26.2 µM (inactive) | > 100 µM (inactive) |  | 22.8 µM (inactive) | 20.4 µM (inactive) |  | 98.9 µM (inactive)
15 | C=CC(=O)NCNC(=O)C=C | > 100 µM (inactive) | > 100 µM (inactive) | > 100 µM (inactive) | > 100 µM (inactive) | > 100 µM (inactive) | > 100 µM (inactive) | > 100 µM (inactive) |  | 
16 | CCN(CC)CCNC(=O)c1ccc(C)c(OCc2ccccc2)c1[N+](=O)[O-] | > 100 µM (inactive) | 27.2 µM (inactive) | 34.3 µM (inactive) | 18.1 µM (inactive) | 20.8 µM (inactive) | 18 µM (inactive) | 26.5 µM (inactive) |  | 61.9 µM (inactive)
17 | Cc1cc(Cl)ccc1NC(=O)C(=O)Cc1ccc([N+](=O)[O-])c([N+](=O)[O-])c1CC(=O)C(=O)Nc1ccc(Cl)cc1C | > 100 µM (inactive) | > 100 µM (inactive) |  | > 100 µM (inactive) | > 100 µM (inactive) | > 100 µM (inactive) | 60.4 µM (inactive) |  | > 100 µM (inactive)
18 | CSc1cnc2ccccc2c1Sc1cn(C)c2ccccc2c1=O | 34 µM (inactive) | 38.9 µM (inactive) | > 100 µM (inactive) | 56 µM (inactive) | 21.9 µM (inactive) |  | 14.9 µM (inactive) | 10 µM (inactive) | 
19 | CCCCCCCCCCCCC(=O)OC(c1cnco1)c1nc(C(O)CC(O)C(O)C(C)O)co1 (stereo not drawn) | 3.48 µM (inactive) | 1.23 µM (inactive) | 0.946 µM (active) | 0.78 µM (active) | 0.627 µM (active) | 0.238 µM (active) | 0.18 µM (active) |  | 
20 | CN1c2ccccc2N(C(=O)c2ccccc2)C(CC(=O)O)c2cccn21 (stereo not drawn) | > 100 µM (inactive) | > 100 µM (inactive) |  | > 100 µM (inactive) | > 100 µM (inactive) | > 100 µM (inactive) | > 100 µM (inactive) | > 100 µM (inactive) | 
21 | CCOC(=O)C1=C(C(=O)OCC)C2(c3ccccc3)N(O1)c1ccccc1C2(C)C (stereo not drawn) | 23.3 µM (inactive) | 39.1 µM (inactive) | 50 µM (inactive) | 70.8 µM (inactive) |  | 36.1 µM (inactive) |  |  | 54.8 µM (inactive)
